Test results as given in PubChem BioAssay AID1963446 (Molecular Pharmacology Branch, DTP, NCI, 2024).

Test system: 993429-296-R-J1-PDC complex spheroid growth, percent test/control
Assay: Anticancer human tumor 993429-296-R-J1-PDC patient-derived uterine sarcoma cell line growth inhibition [Asc]
Settings: for IC50: curve of first compound; for viability, T/C: stronger effect = lower value
Summary of the method: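 Tumor cells were grown as complex spheroids with human endothelial cells (HUVEC) and human mesenchymal stem cells as stroma. Agents were tested alone and in combination, in half-log steps down from the clinical Cmax, or from 10 microM where Cmax was unknown.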

[1] = second compound 0.01 µM, first compound 0.0316 µM
[2] = second compound 0.01 µM, first compound 0.1 µM
[3] = second compound 0.01 µM, first compound 0.316 µM
[4] = second compound 0.01 µM, first compound 1 µM
[5] = second compound 0.0316 µM, first compound 0.0316 µM
[6] = second compound 0.0316 µM, first compound 0.1 µM
[7] = second compound 0.0316 µM, first compound 0.316 µM
[8] = second compound 0.0316 µM, first compound 1 µM
[9] = second compound 0.1 µM, first compound 0.00316 µM
[10] = second compound 0.1 µM, first compound 0.01 µM
[11] = second compound 0.1 µM, first compound 0.0316 µM
[12] = second compound 0.1 µM, first compound 0.1 µM
[13] = second compound 0.1 µM, first compound 0.316 µM
[14] = second compound 0.1 µM, first compound 1 µM
[15] = second compound 0.316 µM, first compound 0.00316 µM
[16] = second compound 0.316 µM, first compound 0.01 µM
[17] = second compound 0.316 µM, first compound 0.0316 µM
[18] = second compound 0.316 µM, first compound 0.1 µM
[19] = second compound 0.316 µM, first compound 0.316 µM
[20] = second compound 0.316 µM, first compound 1 µM
[21] = second compound 1 µM, first compound 0.00316 µM
[22] = second compound 1 µM, first compound 0.01 µM
[23] = second compound 1 µM, first compound 0.0316 µM
[24] = second compound 1 µM, first compound 0.1 µM
[25] = second compound 1 µM, first compound 0.316 µM
[26] = second compound 1 µM, first compound 1 µM
[27] = second compound 0.1 µM, first compound 3.16 µM
[28] = second compound 0.1 µM, first compound 10 µM
[29] = second compound 0.316 µM, first compound 3.16 µM
[30] = second compound 0.316 µM, first compound 10 µM
[31] = second compound 1 µM, first compound 3.16 µM
[32] = second compound 1 µM, first compound 10 µM
[33] = second compound 3.16 µM, first compound 0.0316 µM
[34] = second compound 3.16 µM, first compound 0.1 µM
[35] = second compound 3.16 µM, first compound 0.316 µM
[36] = second compound 3.16 µM, first compound 1 µM
[37] = second compound 10 µM, first compound 0.0316 µM
[38] = second compound 10 µM, first compound 0.1 µM
[39] = second compound 10 µM, first compound 0.316 µM
[40] = second compound 10 µM, first compound 1 µM
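Note: spheroids exposed to compounds for seven days.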

IC50 (second compound 0.01 µM) [nM]	IC50 (second compound 0.0316 µM) [nM]	IC50 (second compound 0.1 µM) [nM]	IC50 (second compound 0.316 µM) [nM]	IC50 (second compound 1 µM) [nM]	SMILES	viability, T/C [1] [%]	viability, T/C [2] [%]	viability, T/C [3] [%]	viability, T/C [11] [%]	viability, T/C [12] [%]	viability, T/C [13] [%]	viability, T/C [14] [%]	viability, T/C [17] [%]	viability, T/C [18] [%]	viability, T/C [19] [%]	viability, T/C [20] [%]	viability, T/C [23] [%]	viability, T/C [24] [%]	viability, T/C [25] [%]	viability, T/C [26] [%]	other results
> 1000	> 1000	> 1000	< 3.16	> 1000	CCN1CCN(Cc2ccc(Nc3ncc(F)c(-c4cc(F)c5nc(C)n(C(C)C)c5c4)n3)nc2)CC1 + CNC(C)C(=O)NC1CN(S(=O)(=O)c2cccc(S(=O)(=O)N3CCC4CCC(C(=O)NC(c5ccccc5)c5ccccc5)N4C(=O)C(NC(=O)C(C)NC)C3)c2)CCC2CCC(C(=O)NC(c3ccccc3)c3ccccc3)N2C1=O	64	68.4	67.7	56.2	54	59.8	62.4	41	53.2	69	70	38.9	51.4	49.6	60.3	viability, T/C (second compound 0.01 µM, first compound 0.00316 µM): 58.4%; viability, T/C (second compound 0.01 µM, first compound 0.01 µM): 66.1%; viability, T/C [4]: 76%; viability, T/C (second compound 0.0316 µM, first compound 0.00316 µM): 54.1%; viability, T/C (second compound 0.0316 µM, first compound 0.01 µM): 63.4%; viability, T/C [5]: 59.5%; viability, T/C [6]: 53.6%; viability, T/C [7]: 71.4%; viability, T/C [8]: 77.4%; viability, T/C [9]: 52%; viability, T/C [10]: 54%; viability, T/C [15]: 45.3%; viability, T/C [16]: 46.2%; viability, T/C [21]: 53.5%; viability, T/C [22]: 58.7%
> 10000	> 10000	> 10000	> 10000	> 10000	C=CC(=O)N1CCN(c2nc(=O)n(-c3c(C)ccnc3C(C)C)c3nc(-c4c(O)cccc4F)c(F)cc23)C(C)C1 (stereo not given) + CNC(C)C(=O)NC1CN(S(=O)(=O)c2cccc(S(=O)(=O)N3CCC4CCC(C(=O)NC(c5ccccc5)c5ccccc5)N4C(=O)C(NC(=O)C(C)NC)C3)c2)CCC2CCC(C(=O)NC(c3ccccc3)c3ccccc3)N2C1=O	58.3	67.2	71.1	56.7	49.8	62.8	65	52.3	48.6	60.6	55.9	51.7	57.3	61.5	60.6	viability, T/C [4]: 69.7%; viability, T/C (second compound 0.01 µM, first compound 3.16 µM): 75.1%; viability, T/C (second compound 0.01 µM, first compound 10 µM): 68.1%; viability, T/C [5]: 58.9%; viability, T/C [6]: 65.8%; viability, T/C [7]: 66.2%; viability, T/C [8]: 49.3%; viability, T/C (second compound 0.0316 µM, first compound 3.16 µM): 62.8%; viability, T/C (second compound 0.0316 µM, first compound 10 µM): 61.2%; viability, T/C [27]: 59.9%; viability, T/C [28]: 64.5%; viability, T/C [29]: 62.1%; viability, T/C [30]: 59.5%; viability, T/C [31]: 59.2%; viability, T/C [32]: 59%
		494	460	321	C=C(F)C(=O)N1CCN(c2nc(OCC3CCCN3C)nc3c2CCN(c2cccc4cccc(Cl)c24)C3)CC1CC#N (stereo not given) + Cc1c(S(C)(=O)=O)c(-c2cc(F)cc(N3CCN(c4ccc(NS(=O)(=O)c5ccc(NC(CCN6CCC(C(=O)OCCCP(=O)(O)O)CC6)CSc6ccccc6)c(S(=O)(=O)C(F)(F)F)c5)cc4)CC3)c2)c(-c2ccc(Cl)cc2)n1C(C)C				57.1	85	69.2	17.5	71.8	77.1	70.6	7.35	49.5	60.8	50.5	5.26	IC50 (second compound 3.16 µM): < 31.6 nM; IC50 (second compound 10 µM): 553 nM; viability, T/C [27]: 0.55%; viability, T/C [28]: 0.23%; viability, T/C [29]: 0.21%; viability, T/C [30]: 0.19%; viability, T/C [31]: 0.3%; viability, T/C [32]: 0.14%; viability, T/C [33]: 46.9%; viability, T/C [34]: 49.6%; viability, T/C [35]: 35.9%; viability, T/C [36]: 7.98%; viability, T/C (second compound 3.16 µM, first compound 3.16 µM): 0.08%; viability, T/C (second compound 3.16 µM, first compound 10 µM): 0.17%; viability, T/C [37]: 78.9%; viability, T/C [38]: 108%; viability, T/C [39]: 87.3%; viability, T/C [40]: 10.4%; viability, T/C (second compound 10 µM, first compound 3.16 µM): 0.43%; viability, T/C (second compound 10 µM, first compound 10 µM): 0.3%
		12.6	11.6	4.23	COc1c(OCCCN2CCOCC2)ccc2c3n(c(=NC(=O)c4cnc(N)nc4)nc12)CCN3 + Cc1c(S(C)(=O)=O)c(-c2cc(F)cc(N3CCN(c4ccc(NS(=O)(=O)c5ccc(NC(CCN6CCC(C(=O)OCCCP(=O)(O)O)CC6)CSc6ccccc6)c(S(=O)(=O)C(F)(F)F)c5)cc4)CC3)c2)c(-c2ccc(Cl)cc2)n1C(C)C				29.3	3.96	1.63	0.23	22.2	3.44	0.88	0.17	23.3	3.11	0.68	0.31	IC50 (second compound 3.16 µM): < 3.16 nM; IC50 (second compound 10 µM): 10.1 nM; viability, T/C [9]: 76.5%; viability, T/C [10]: 54.1%; viability, T/C [15]: 71.7%; viability, T/C [16]: 54%; viability, T/C [21]: 54.2%; viability, T/C [22]: 37.9%; viability, T/C (second compound 3.16 µM, first compound 0.00316 µM): 35.8%; viability, T/C (second compound 3.16 µM, first compound 0.01 µM): 33.7%; viability, T/C [33]: 14.8%; viability, T/C [34]: 2.35%; viability, T/C [35]: 0.33%; viability, T/C [36]: 0.18%; viability, T/C (second compound 10 µM, first compound 0.00316 µM): 79.3%; viability, T/C (second compound 10 µM, first compound 0.01 µM): 49.4%; viability, T/C [37]: 20.7%; viability, T/C [38]: 1.24%; viability, T/C [39]: 0.28%; viability, T/C [40]: 0.25%
